20 compounds from patent US10597405B2, “Chemical compounds” (ASTRAZENECA AB, priority 2017, dated 2020) can be followed below.

For data set [1], the target named is T1, KRasG12C (Homo sapiens, UniProt P01116, G12C).
T1 construct: biotin (biotinylated); made in house
The experiment in a line: KRasG12C Mass Spectrometry adducting assay. The class given is binding. The following applies: 10 μM test compound, 4 μM KRasG12C, 4 hours reaction; single experiment or average of two or more. As for the experimental part:
KRasG12C Mass Spectrometry Adducting Assay
Enzyme solutions were prepared in assay buffer containing 20 mM HEPES (pH 7.5), 5 mM MgCl2, and 150 mM NaCl. 4 μM GDP loaded biotinylated KRas^G12C was prepared in assay buffer and 50 μl added into each well of a 96 well polypropylene assay plate (Greiner, #651201) containing 500 nl of 1 mM test compounds (final concentration 10 μM), this was allowed to react for 4 hours before the addition of 50 μl 1% Formic acid to quench the reaction. The plate was sealed before reading on a Xevo G2 QTOF (Waters) and Acquity LC system (Waters). 10 μl of sample was injected onto a Xbridge BEH300; C4; 3.5 um; 2.1×50 mm column (Waters) running a 3 minute gradient. Blank samples were run in between each test sample.
Data was analysed in Mass Lynx software (Waters), the Total ion count (TIC) trace was used and the eluted protein peak data combined. Using the combined spectrum the data was deconvoluted using MaxEnt1 method. The peak area for apo-protein KRas^G12C (APO) and KRAS+relative cmpd mass (adduct) were measured, and a percentage adduct was calculated using the following calculation: Percent adduct=100*(area of adduct peak/(sum of APO+adduct peaks)

Data set [2] can be described thus: In vivo studies: oral bioavailability and clearance. As to conditions: rat.
In data set [3] the target is T1, KRasG12C. The experiment in a line: KRasG12C functional assay (HTRF nucleotide exchange / Raf RBD binding). The class given is biochemical. The following applies: GDP loaded biotinylated KRasG12C, samples incubated 4 hrs, FRET readout; single experiment or average of two or more. As for the experimental part:
KRasG12C Functional Assay
All enzyme and substrate solutions were prepared in assay buffer containing 20 mM HEPES (pH 7.5), 5 mM MgCl2, 150 mM NaCl, and 0.01% Tween 20. […] In a separate mix 20 nM GST-Raf Ras binding domain (GST-Raf RBD, purified in house) and 4 μg/ml anti-GST XL665 antibody (Cisbio) was prepared in assay buffer containing 50 mM Potassium Fluoride and 0.05 mg/ml BSA and equilibrated for 4 hours before adding 0.6 μM Guanosine 5′-[γ-thio]triphosphate (GTPγS, Sigma) and 0.08 μM SOS (purified in house). 5 μl of the GST-RAF RBD mix was then dispensed into each well of the assay plate. […] This is detected simultaneously via the specific binding interaction between active GTPγS KRas^G12C with GST-Raf RBD which brings the europium and XL665 into close proximity enabling an increased FRET signal to be detected on a Pherastar (BMG) plate reader equipped with the HTRF filter module. […] IC50 values were calculated from normalised dose-response response FRET data curve fitted in Genedata screener (Basel, Switzerland).
On the technique in general: In TR-FRET formats the signal depends on donor and acceptor labels being close together.

Data set [4] can be described thus: Reactivity to glutathione (co-incubation with glutathione in buffer).
Data set [5] is described as follows: Incubations with hepatic systems (turnover). Format: in vitro ADME. As to conditions: result in words.

The bioavailability is the share of a dose that reaches the circulation, judged against a reference dose that is usually intravenous. A word on the IC50: it is the concentration at which inhibition is half-maximal. Read a low IC50 as higher potency. Turning to `C=CC(=O)N1C[C@@H]2COc3cnc4c(C)c(-c5c(O)cccc5F)c(Cl)cc4c3N2C[C@H]1C` (single isomer, unassigned) [Compound 40], on KRasG12C [1], the “KRasG12C M.S. Binding Mean adduct %” value is listed as 96%. Further, the bioavailability in data set [2] (po, species not given, read-out: F value (oral bioavailability)) was determined as 43%. Moreover, the half-inhibitory concentration (IC50) on KRasG12C [3] came to 62 nM.
The half-life is how long it takes for the measured level to halve. Consider `C=CC(=O)N1CCN2c3c(cnc4c(F)c(-c5c(O)cccc5F)c(Cl)cc34)N(C)C(=O)[C@H]2C1` (single isomer, unassigned) [Example 17, 3-acryloyl-11-chloro-9-fluoro-10-(2-fluoro-6-hydroxyphenyl)-6-methyl-2,3,4,4a-tetrahydro-1H-pyrazino[1′,2′:4,5]pyrazino[2,3-c]quinolin-5(6H)-one], for which, at KRasG12C [1], the “KRasG12C M.S. Binding Mean adduct %” value stood at 100%. Also, the half-life in data set [4] turned out to be 9.75 h. Moreover, the “turnover in incubations with hepatic systems” value in data set [5] was “low turnover”. Moreover, the IC50 at KRasG12C [3] turned out to be 18 nM.
Taken in the same sequence, the figures for `C=CC(=O)N1C[C@@H]2C(=O)N(C)c3cnc4c(F)c(-c5c(O)cccc5F)c(Cl)cc4c3N2C[C@H]1C` (single isomer, unassigned) [Example 22] were 100%, 15.5 h, “low turnover” and 5 nM.
`C=CC(=O)N1CCN2c3c(cnc4c(F)c(-c5c(C)ccc6[nH]cnc56)c(Cl)cc34)OC[C@H]2C1` (single isomer, unassigned) [Compound 77]: the “KRasG12C M.S. Binding Mean adduct %” value on KRasG12C [1] is recorded as 60%. On KRasG12C [3], this compound returned an IC50 of 28 nM.
On to `C=CC(=O)N1CCN2c3c(cnc4cc(-c5c(O)cccc5F)c(Cl)cc34)N(C)C[C@H]2C1` [Example 14, 1-((4aS)-11-chloro-10-(2-fluoro-6-hydroxyphenyl)-6-methyl-1,2,4,4a,5,6-hexahydro-3H-pyrazino[1′,2′:4,5]pyrazino[2,3-c]quinolin-3-yl)prop-2-en-1-one], for which, on KRasG12C [1], the “KRasG12C M.S. Binding Mean adduct %” value is listed as 91%. Also, the IC50 on KRasG12C [3] worked out at 132 nM.
`C=CC(=O)N1CCN2c3c(cnc4c(F)c(-c5c(O)cccc5F)c(Cl)cc34)N(C)C(=O)C2C1` (single isomer, unassigned) [Example 20, 3-acryloyl-11-chloro-9-fluoro-10-(2-fluoro-6-hydroxyphenyl)-6-methyl-2,3,4,4a-tetrahydro-1H-pyrazino[1′,2′:4,5]pyrazino[2,3-c]quinolin-5(6H)-one]: the “KRasG12C M.S. Binding Mean adduct %” value at KRasG12C [1] was 51%. For the same compound, the IC50 at KRasG12C [3] amounted to 630 nM.
With `C=CC(=O)N1CCN2c3c(cnc4c(F)c(-c5c(C)ccc6c5C(=O)NC6)c(Cl)cc34)OC[C@H]2C1` (single isomer, unassigned) [Compound 86], the “KRasG12C M.S. Binding Mean adduct %” value at KRasG12C [1] was 95%. The IC50 at KRasG12C [3] amounted to 41 nM.
For `C=CC(=O)N1CCN2c3c(cnc4cc(-c5c(O)cccc5F)c(Cl)cc34)N(CCN(C)C)C[C@H]2C1` [Example 12, 1-((4aS)-11-Chloro-6-(2-(dimethylamino)ethyl)-10-(2-fluoro-6-hydroxyphenyl)-1,2,4,4a,5,6-hexahydro-3H-pyrazino[1′,2′:4,5]pyrazino[2,3-c]quinolin-3-yl)prop-2-en-1-one], the “KRasG12C M.S. Binding Mean adduct %” value at KRasG12C [1] came out at 75%. In addition, the IC50 on KRasG12C [3] was found to be 231 nM.
With `C=CC(=O)N1CCN2c3c(cnc4c(C)c(-c5c(O)cccc5F)c(Cl)cc34)OC[C@H]2C1` (single isomer, unassigned) [Compound 39], on KRasG12C [1], the “KRasG12C M.S. Binding Mean adduct %” value came out at 94%. In data set [2], the clearance is 6 mL/min/kg. In data set [2] (result in words), the “F (oral bioavailability), in words” value is “complete”. The concentration for half-maximal inhibition (IC50) at KRasG12C [3] is 97 nM.
As for `C=CC(=O)N1CCN2c3c(cnc4cc(-c5c(C)ccc6cc[nH]c(=O)c56)c(Cl)cc34)OC[C@H]2C1` (single isomer, unassigned) [Compound 69], the “KRasG12C M.S. Binding Mean adduct %” value on KRasG12C [1] came out at 12%. Also, the IC50 on KRasG12C [3] came to 2700 nM.
For the compound `C=CC(=O)N1CCN2c3c(cnc4cc(-c5c(C)ccc6[nH]cnc56)c(Cl)cc34)OC[C@H]2C1` (single isomer, unassigned) [Compound 66], on KRasG12C [1], the “KRasG12C M.S. Binding Mean adduct %” value amounted to 25%. Besides, the IC50 at KRasG12C [3] was determined as 654 nM.
Regarding `C=CC(=O)N1CCN2c3c(cnc4c(F)c(-c5c(O)cccc5F)c(Cl)cc34)N(C)C(=O)C2C1` (single isomer, unassigned) [Example 19, 3-acryloyl-11-chloro-9-fluoro-10-(2-fluoro-6-hydroxyphenyl)-6-methyl-2,3,4,4a-tetrahydro-1H-pyrazino[1′,2′:4,5]pyrazino[2,3-c]quinolin-5(6H)-one], the “KRasG12C M.S. Binding Mean adduct %” value on KRasG12C [1] is 3%. For the same compound, at KRasG12C [3], the IC50 is > 9200 nM.
Taken in the same sequence, the figures for `C=CC(=O)N1CCN2c3c(cnc4c(C)c(-c5c(O)cccc5F)c(Cl)cc34)OC[C@H]2C1` (single isomer, unassigned) [Compound 38] were 7% and 9700 nM.
With `C=CC(=O)N1CCN2c3c(cnc4cc(-c5c(F)ccc6cc[nH]c(=O)c56)c(Cl)cc34)OC[C@H]2C1` (single isomer, unassigned) [Compound 45], the “KRasG12C M.S. Binding Mean adduct %” value at KRasG12C [1] turned out to be 96%. On KRasG12C [3], this compound showed a 50% inhibitory concentration (IC50) of 26 nM.
Taken in the same sequence, the figures for `C=CC(=O)N1CCN2c3c(cnc4c(F)c(-c5c(O)cccc5F)c(Cl)cc34)NC(=O)[C@H]2C1` (single isomer, unassigned) [Compound 88] were 96% and 14 nM.
For `C=CC(=O)N1CCN2c3c(cnc4cc(-c5c(O)cccc5F)c(Cl)cc34)OC[C@H]2C1` (single isomer, unassigned) [Example 1], at KRasG12C [1], the “KRasG12C M.S. Binding Mean adduct %” value was determined as 96%. Also, the IC50 on KRasG12C [3] came out at 186 nM.
With `C=CC(=O)N1CCN2c3c(cnc4cc(-c5c(O)cccc5F)c(Cl)c(OC)c34)OC[C@H]2C1` [Compound 83, 1-[(4aR)-11-Chloro-10-(2-fluoro-6-hydroxyphenyl)-12-methoxy-1,2,4a,5-tetrahydropyrazino[1′,2′:4,5][1,4]oxazino[2,3-c]quinolin-3(4H)-yl]prop-2-en-1-one], the “KRasG12C M.S. Binding Mean adduct %” value at KRasG12C [1] is 77%. For the same compound, at KRasG12C [3], the IC50 was determined as 257 nM.
With `C=CC(=O)N1CCN2c3c(cnc4cc(-c5c(O)cccc5F)c(Cl)cc34)N(C)C(=O)[C@H]2C1` [Example 15, (4aR)-3-Acryloyl-11-chloro-10-(2-fluoro-6-hydroxyphenyl)-6-methyl-2,3,4,4a-tetrahydro-1H-pyrazino[1′,2′:4,5]pyrazino[2,3-c]quinolin-5(6H)-one], the “KRasG12C M.S. Binding Mean adduct %” value on KRasG12C [1] amounted to 100%. Further, the IC50 at KRasG12C [3] stood at 145 nM.
Take `C=CC(=O)N1CCN2c3c(cnc4cc(-c5c(O)cccc5F)c(Cl)cc34)N(C)C(=O)[C@@H]2C1` [Example 16, (4aS)-3-Acryloyl-11-chloro-10-(2-fluoro-6-hydroxyphenyl)-6-methyl-2,3,4,4a-tetrahydro-1H-pyrazino[1′,2′:4,5]pyrazino[2,3-c]quinolin-5(6H)-one]: the “KRasG12C M.S. Binding Mean adduct %” value at KRasG12C [1] was found to be 18%. For the same compound, at KRasG12C [3], the half-inhibitory concentration (IC50) was 2700 nM.
With `C=CC(=O)N1CCN2c3c(cnc4c(F)c(-c5c(C)ccc6[nH]ncc56)c(Cl)cc34)N(C)C(=O)[C@H]2C1` (single isomer, unassigned) [Compound 49], on KRasG12C [1], the “KRasG12C M.S. Binding Mean adduct %” value amounted to 95%. On KRasG12C [3], this compound came in with an IC50 of 47 nM.
